This note sets out measurements from patent US20250205204A1, “Transcription Factor Brn2 Inhibitory Compounds for Use as Therapeutics” (The University of British Columbia, priority 2021, published 2025).

Structures are written as SMILES. Where two headings read alike, the source gives them in different places.

Data set [1] is described as follows: Metabolic stability in liver microsomes (MLM). Type of data set: in vitro ADME, mice. Conditions: 0.25 mg/mL protein; for half-life at 1 μM: mouse, liver microsomes, pH 7.4, 1 μM compound, read-out: T1/2 in mins (MLM); for Met Stab % (60 mins) MLM: percent remaining at 60 min, 1 μM compound, 1 mM NADPH. As to the method: Preparation of Potassium Phosphate Buffer, 50 mM (pH 7.4)
Potassium phosphate buffer (Kphos) was prepared by adding 0.647 g potassium phosphate monobasic (KH2PO4) and 3.527 g potassium phosphate dibasic (KH2PO4) to 400 mL of Milli-Q™ water. pH of the buffer was adjusted to 7.4 and volume was made up to 500 mL.
Preparation of Microsomes
Stock solutions of BRN2 inhibitors were prepared in DMSO at a concentration of 1 mM
Preparation of NADPH Solution
• Total Incubation volume: 100 μL • Compound concentration: 1 μM • Protein Concentration: 0.25 mg/mL • NADPH: 1 mM • Final DMSO contain: 0.1% • Number of replicates: 2 • Time points: 0, 5, 15, 30 and 60 min
From the above mix, 70 μL was added to individual wells of 96 well reaction plates and pre-incubated in a 37° C. water bath for 5 min. […] Reactions without NADPH and buffer controls (minus NADPH) at 0 min and 60 min were also incubated to rule out non-NADPH metabolism or chemical instability in the incubation buffer. All reactions were terminated using 100 μL of ice-cold acetonitrile containing internal standard at 0, 5, 15, 30 and 60 min.
Samples were monitored for parent compounds disappearance in MRM mode using LC-MS/MS.
The percent remaining of test compounds and positive control in each sample was determined by considering peak area ratio in the 0 minute sample as 100%. The Half-life of compounds in microsomes is calculated by formula: […]
In vitro intrinsic clearance (CL'int) (units in mL/min/kg) was calculated using the formula.
[formula] • For liver microsomes, scaling factor used was 45 mg microsomal protein per gm liver. • * Indicates liver weight (gm) which varies species wise. For mice the liver weights are 90 gm.
(Liver microsomes are a subcellular fraction often used to study metabolism.)

The subject of a further data set is 42D^ENZR cells. In words: Cell proliferation, BRN2 expressing 42D cells (crystal violet). Format: cell-based. The settings on record: for Growth Specificity: 42D (express BRN2) versus 16D (no BRN2) cells, result in words. As to the method:
Step 3: Cell Proliferation
Plate 42DE^NZR (˜7000 cells per well) and 16D^CRPC (˜5000 cells per well) cells in 96 well plate with a volume of 100 μL per well. • 2. Next day 1 mL aliquots of media are combined with 3× the desired concentration of compounds. The aliquots are vortexed and 50 μL of each 3× concentration is added to the 100 μL of media in each well to give the ix desired concentration.
The following are the desired concentrations:
Approximately 72 hours later, 17 μL of 10% Glutaraldehyde is added to each well and plates are placed on a shaker for 20-30 minutes. • 4. Media is washed off the fixed cells by slow submersion in a container of water. Then the water is removed by tapping the plate upside down. • 5. 75 μL of Crystal Violet™ solution is added into the 96 well plates and placed on a shaker for ˜30 minutes. • 6. Media is washed off the fixed cells by repeated slow submersion in a container of water and the plates are allowed to dry over-night. • 7. Next day, 75 μL of Sorensen Solution is accurately pipetted into each well. The plates placed on a shaker for ˜30 minutes. • 8. Absorbance is measured in the plate at 590 nm.
There is a distinction in TABLES 1 and 2 difference between “Active” and “Specific” or “Specificity”.

The mark [2] stands for this setting: read-out: IC50 (effective on both 42D and 16D cells).

As a reminder, the IC50 is the midpoint of a concentration-inhibition curve.

For the molecule `O=C(Nc1nc2ccccc2s1)C1CCc2ccccc21` (stereo not shown) [7-51], in data set [1], the half-life at 1 μM stood at 12 min and the “Met Stab % (60 mins) MLM” value is 1%. The “Growth Specificity” value in the data set on 42D^ENZR cells (about 72 hours) is “Not effective on 42D or 16D cells”.

`CC1(C)C/C(=N/Nc2nc3ccccc3s2)c2ccccc21` [7-53]: in data set [1], the half-life at 1 μM came out at 13 min and the “Met Stab % (60 mins) MLM” value is given as 4%. In addition, the “Growth Specificity” value with 42D^ENZR cells (about 72 hours) is “effective on both 42D and 16D cells”. For the same molecule, the half-maximal inhibitory concentration (IC50) in the data set on 42D^ENZR cells (setting [2]) turned out to be 10 µM.

On to `C/C(=N\Nc1nc2ccccc2s1)c1ccccc1C` [7-54], for which the “Met Stab % (60 mins) MLM” value in data set [1] was 0%. For the same molecule, the “Growth Specificity” value in the data set with 42D^ENZR cells (about 72 hours) is reported as “Not effective on 42D or 16D cells”.

For `Fc1ccc2c(c1)/C(=N\Nc1nc3ccccc3s1)CC2` [7-56], in data set [1], the half-life at 1 μM is 8 min and the “Met Stab % (60 mins) MLM” value stood at 0%. Besides, in the data set on 42D^ENZR cells (about 72 hours), the “Growth Specificity” value is “effective on both 42D and 16D cells”. Besides, the half-maximal inhibitory concentration (IC50) with 42D^ENZR cells (setting [2]) was 10 µM.

For the molecule `Fc1cccc2c1/C(=N\Nc1nc3ccccc3s1)CC2` [7-58], in data set [1], the half-life at 1 μM worked out at 7 min and the “Met Stab % (60 mins) MLM” value was determined as 0%. Further, the “Growth Specificity” value in the data set on 42D^ENZR cells (about 72 hours) was “effective on both 42D and 16D cells”. Further, the half-maximal inhibitory concentration (IC50) with 42D^ENZR cells (setting [2]) worked out at 10 µM.

Consider `c1ccc(N/N=C2\CCc3ccccc32)nc1` [7-60], for which, in data set [1], the half-life at 1 μM is 8 min and the “Met Stab % (60 mins) MLM” value stood at 0%. In the data set on 42D^ENZR cells (about 72 hours), the “Growth Specificity” value is on record as “Not effective on 42D or 16D cells”.

With `CC1(C)Cc2ccccc2/C1=N\Nc1nc2ccccc2s1` [7-61], in data set [1], the half-life at 1 μM amounted to 10 min and the “Met Stab % (60 mins) MLM” value was 1%. In addition, the “Growth Specificity” value in the data set on 42D^ENZR cells (about 72 hours) was “effective on both 42D and 16D cells”. Also, in the data set with 42D^ENZR cells (setting [2]), the IC50 came out at 10 µM.

`Cc1nc(N/N=C2/CCc3ccccc32)sc1C` [7-63]: in data set [1], the half-life at 1 μM stood at 11 min and the “Met Stab % (60 mins) MLM” value turned out to be 1%. The “Growth Specificity” value in the data set with 42D^ENZR cells (about 72 hours) is recorded as “Not effective on 42D or 16D cells”.

Regarding `c1ccc2c(c1)CC/C2=N/Nc1nccs1` [7-64], in data set [1], the half-life at 1 μM came to 8 min and the “Met Stab % (60 mins) MLM” value stood at 0%. Besides, in the data set on 42D^ENZR cells (about 72 hours), the “Growth Specificity” value is “Not effective on 42D or 16D cells”.

In the case of `CC1(C)/C(=N/Nc2nc3ccccc3s2)C(=O)c2ccccc21` [7-67, (Z)-2-(2-(benzo[d]thiazol-2-yl)hydrazineylidene)-3,3-dimethyl-2,3-dihydro-1H-inden-1-one], in data set [1], the half-life at 1 μM stood at 34 min and the “Met Stab % (60 mins) MLM” value came to 28%. Further, the “Growth Specificity” value with 42D^ENZR cells (about 72 hours) is on record as “not specific”.

With `COC(=O)C1/C(=N/Nc2nc3ccccc3s2)Cc2ccccc21` (stereo not shown) [7-68, methyl (E)-2-(2-(benzo[d]thiazol-2-yl)hydrazineylidene)-2,3-dihydro-1H-indene-1-carboxylate], in data set [1], the half-life at 1 μM was less than 5 min and the “Met Stab % (60 mins) MLM” value was 0%. Also, the “Growth Specificity” value in the data set on 42D^ENZR cells (about 72 hours) is “not specific”.

In the case of `O=C1c2ccccc2CC1/C=N/Nc1nc2ccccc2s1` (stereo not shown) [7-69, (E)-2-((2-(benzo[d]thiazol-2-yl)hydrazineylidene)methyl)-2,3-dihydro-1H-inden-1-one], in data set [1], the half-life at 1 μM came to 44 min and the “Met Stab % (60 mins) MLM” value is 33%. The “Growth Specificity” value with 42D^ENZR cells (about 72 hours) was “not specific”.

For `O=C1/C(=N\Nc2nc3ccccc3[nH]2)Cc2ccccc21` [7-76, (Z)-2-(2-(1H-benzo[d]imidazol-2-yl)hydrazineylidene)-2,3-dihydro-1H-inden-1-one], in data set [1], the half-life at 1 μM is 10 min and the “Met Stab % (60 mins) MLM” value stood at 1%. The “Growth Specificity” value in the data set with 42D^ENZR cells (about 72 hours) is given as “Not effective on 42D or 16D cells”.

As to `O=C1/C(=N\Nc2nc3ccccc3o2)Cc2ccccc21` [7-77, (Z)-2-(2-(benzo[d]oxazol-2-yl)hydrazineylidene)-2,3-dihydro-1H-inden-1-one], in data set [1], the half-life at 1 μM came out at 16 min and the “Met Stab % (60 mins) MLM” value came out at 8%. Also, the “Growth Specificity” value with 42D^ENZR cells (about 72 hours) is given as “Not specific”.

Turning to `O=C1/C(=N\Nc2nc(-c3ccccc3)cs2)Cc2ccccc21` [7-78], in data set [1], the half-life at 1 μM worked out at 32 min and the “Met Stab % (60 mins) MLM” value came to 32%. In the data set with 42D^ENZR cells (about 72 hours), the “Growth Specificity” value was “Not effective on 42D or 16D cells”.

`Cn1c(N/N=C2/Cc3ccccc3C2=O)nc2ccccc21` [7-79]: in data set [1], the half-life at 1 μM was found to be 6 min and the “Met Stab % (60 mins) MLM” value turned out to be 2%. The “Growth Specificity” value in the data set on 42D^ENZR cells (about 72 hours) is reported as “Specific but weak”. For the same molecule, in the data set on 42D^ENZR cells (42D cells, proliferation, about 72 hours, read-out: 42D IC50), the 50% inhibitory concentration (IC50) was more than 15 µM.
